Assay results from patent publication US20250179028A1, “ACRYLAMIDE COMPOUNDS” (NRG THERAPEUTICS LTD, priority 2022, published 2025).

Key:
mPTP = mPTP activity (Ca2+ retention) assay in isolated rat liver mitochondria; type: biochemical; settings: isolated rat liver mitochondria; average value from multiple experiments (n ≥ 2)
Source text: Pharmacological inhibition or modulation of the mPTP can be measured in well characterised ‘Ca^2+ retention’ assays performed in isolated mitochondria. In vitro isolated mitochondria rapidly sequester exogenous Ca^2+ until the intramitochondrial Ca^2+ concentration reaches the threshold for mPTP activation. Once the pore is activated, mitochondrial integrity is compromised and the stored Ca^2+ is released. The distribution of Ca^2+ between extra- and intra-mitochondrial compartments can be measured in real time with the use of membrane-impermeant Ca^2+ sensitive fluorescent dyes. Depending on the configuration of the assay, inhibition or modulation of the mPTP either delays the opening of the pore or increases the concentration of Ca^2+ required to induce mPTP opening.
MPTP activity was measured in mitochondria freshly isolated from female Sprague Dawley (250 to 300 gram) rat livers using the following method. Cervical dislocation was performed on the rat. The liver was then perfused in-situ with ˜40 ml cold Dulbecco's Phosphate Buffered Saline (DPBS) prior to dissection and transferred into 30 ml Isolation Buffer (250 mM Sucrose, 10 mM KCl, 1 mM EGTA, 1 mM EDTA, 25 mM HEPES, adjusted to pH 7.5 with 1 M NaOH). Each lobe of the liver was then removed from the buffer, minced using tweezers and a scalpel into ˜5 mm pieces then transferred into a 50 ml Potterton dounce homogenization tube on ice containing 30 ml ice-cold centrifugation buffer (300 mM Trehalose, 25 mM HEPES, 1 mM EGTA, 1 mM EDTA, 10 mM KCl, adjusted to pH 7.5 with 1 M NaOH and supplemented with 0.1% bovine serum albumin (BSA) and complete protease inhibitor cocktail (one tablet of inhibitor per 50 mls of buffer). Homogenisation was carried out using a teflon pestle at 1800 rpm. The slurry was centrifuged at 800 g for 10 min at 4° C., then the supernatant centrifuged at 10,000 g for 10 min. The pellet was washed once with FLIPR assay buffer (75 mM Mannitol, 25 mM Sucrose, 5 mM Potassium Phosphate Monobasic, 20 mM Tris base, 100 mM KCl, 0.1% BSA adjusted to pH 7.4 with 5M HCl) centrifuged again, then resuspended in FLIPR assay buffer to a concentration of 8.8 mg/ml protein.
Tested compounds (10 mM stock in DMSO) were serially diluted in DMSO in half log steps to generate 10 test concentrations (final concentrations in assay 30 μM to 1 nM). An intermediate dilution of 5 μl DMSO samples into 247 μl FLIPR assay buffer was carried out prior to transfer of 5 μl into duplicate wells of a 384 well polypropylene assay plate. Control wells were 0.5% (v/v) DMSO and 5 μM cyclosporin A.
A stock mitochondria/Fluo5N assay solution was prepared in 5.6 ml FLIPR assay buffer (at RT) supplemented with succinate disodium salt (10 mM), rotenone (1 μM), Fluo5N pentapotassium salt (2 μM) and 1 ml mitochondria suspension, then transferred (15 μl) into the assay plate containing test compounds and incubated for 10 min at RT. Assay plates were then transferred to a FLIPR Tetra plate reader (Molecular Devices). Dye fluorescence was then measured every 3 sec for a total of 10 min. After 12 sec, a 2.5 μl bolus of CaCl2 (75 μM) was added from a source plate containing 675 μM CaCl2 in FLIPR assay buffer. IC50 values for tested compounds were calculated using the fluorescence value collected at the 10 min timepoint with % inhibition calculated using the DMSO control and cyclosporin A values as […] respectively.

CYP2D6 = CYP2D6 (Homo sapiens (Human), UniProt P10635); assay: Cytochrome P450 CYP2D6 inhibition in human liver microsomes; type: in vitro ADME; settings: probe dextromethorphan 2 µM (dextrorphan formation); 1 uM test compound, human liver microsomes; average value from two experiments; negative values = no effective inhibition
Chain of CYP2D6 (P10635 whole entry, canonical isoform): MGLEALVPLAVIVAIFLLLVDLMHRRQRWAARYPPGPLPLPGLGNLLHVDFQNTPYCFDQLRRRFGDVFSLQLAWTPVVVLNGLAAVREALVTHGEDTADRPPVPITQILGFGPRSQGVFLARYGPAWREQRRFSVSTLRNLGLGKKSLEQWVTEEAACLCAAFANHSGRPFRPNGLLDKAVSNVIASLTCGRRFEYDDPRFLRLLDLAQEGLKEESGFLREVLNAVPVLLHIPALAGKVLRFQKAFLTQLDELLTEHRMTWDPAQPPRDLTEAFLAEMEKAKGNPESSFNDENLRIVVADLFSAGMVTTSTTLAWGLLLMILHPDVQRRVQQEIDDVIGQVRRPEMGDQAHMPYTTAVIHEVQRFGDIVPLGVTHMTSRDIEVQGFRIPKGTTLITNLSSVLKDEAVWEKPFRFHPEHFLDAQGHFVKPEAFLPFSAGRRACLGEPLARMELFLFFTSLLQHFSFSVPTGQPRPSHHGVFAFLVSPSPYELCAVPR
Method: Studies to assess tested compound mediated inhibition of cytochrome P450 enzyme isoform CYP2D6 were performed using human liver microsomes (BD Gentest) using either a single concentration (1 μM) of test compound or concentration response (0.1, 0.3, 1, 3, 10 and 30 μM) to derive an IC50. Tested compound solutions were prepared from 10 mM stocks in DMSO and diluted to 200 μM in DMSO. Reactions were prepared in a 96 deep well plate by combining 1 μl test compound with 179 μl reaction mixture (100 mM phosphate buffered saline (PBS), 0.2 mg/mL microsomes and 2 μM Dextromethorphan prepared from stocks as detailed below).
The positive control inhibitor, quinidine, was used at a final concentration of 0.5 μM when used at a single concentration. The final concentrations of quinidine used to derive an IC50 were 0, 0.1, 0.3, 1, 3, 10 and 30 μM. Plates were warmed at 37° C. for 15 min before starting reactions with 20 μl 10 mM NADPH solution in PBS and incubated for 20 min at 37° C. The assay is performed in duplicate. Reactions were quenched with 200 μl cold acetonitrile containing internal standards (200 nM labetalol, 200 nM alprazolam and 100 nM tolbutamide). The plate was centrifuged at 4000 rpm for 30 minutes, placed on ice for 20 minutes and then centrifuged at 4000 rpm for 30 minutes again to precipitate protein. 100 μL of the supernatant was transferred to a new plate and diluted with 100 μL pure water before being analysed using UPLC/MS/MS. The products of the transformation for dextromethorphan to dextrorphan was monitored by UPLC-MS/MS. The inhibition of CYP2D6 in human liver microsomes was measured as the percentage decrease in the activity of dextrorphan formation compared to non-inhibited controls (=100% activity). The IC50 value was calculated (test compound concentration which produces 50% inhibition) by using Excel Xlfit.

Row | Compound | mPTP Rat liver pIC50 (mPTP) | inhibition at 20 min, 1 µM (CYP2D6) [%]
1 | Cc1ccccc1NC(=O)/C=C/c1ccc2oc(=O)[nH]c2c1 [Example 12, (E)-3-(2-oxo-2,3-dihydrobenzo[d]oxazol-5-yl)-N-(o-tolyl)acrylamide] | 6.5 | 3.05
2 | Cc1c(F)cccc1NC(=O)/C=C/c1ccc2sc(=O)[nH]c2c1 [Example 2, (E)-N-(3-fluoro-2-methylphenyl)-3-(2-oxo-2,3-dihydrobenzo[d]thiazol-5-yl)acrylamide] | 6.0 | 
3 | CC1Cc2ccccc2C1NC(=O)/C=C/c1ccc2c(c1)[nH]c(=O)n2C (stereo not drawn) [Example 45, (E)-N-(2-methyl-2,3-dihydro-1H-inden-1-yl)-3-(1-methyl-2-oxo-2,3-dihydro-1H-benzo[d]imidazol-5-yl)acrylamide] | 6.3 | 
4 | CC1Cc2ccccc2C1NC(=O)/C=C/c1ccc2c(C#N)n[nH]c2c1 (stereo not drawn) [Example 44, (E)-3-(3-cyano-1H-indazol-6-yl)-N-(2-methyl-2,3-dihydro-1H-inden-1-yl)acrylamide] | 7.1 | 8.94
5 | Cc1n[nH]c2cc(/C=C/C(=O)NC3CCc4ccccc43)cc(F)c12 (stereo not drawn) [Example 34, (E)-N-(2,3-dihydro-1H-inden-1-yl)-3-(4-fluoro-3-methyl-1H-indazol-6-yl)acrylamide] | 6.7 | 4.37
6 | Cc1cc(NC(=O)/C=C/c2ccc3c(C)n[nH]c3c2)ccc1F [Example 41, (E)-N-(4-fluoro-3-methylphenyl)-3-(3-methyl-1H-indazol-6-yl)acrylamide] | 7.1 | 1.2
7 | Cc1cccc(C)c1NC(=O)/C=C/c1ccc2c(C)n[nH]c2c1 [Example 31, (E)-N-(2,6-dimethylphenyl)-3-(3-methyl-1H-indazol-6-yl)acrylamide] | 7.7 | 19.9
8 | Cn1c(=O)[nH]c2cc(/C=C/C(=O)NC3CCc4ccccc43)ccc21 (stereo not drawn) [Example 24, (E)-N-(2,3-dihydro-1H-inden-1-yl)-3-(1-methyl-2-oxo-2,3-dihydro-1H-benzo[d]imidazol-5-yl)acrylamide] | 6.1 | 0.77
9 | Cc1ccc(NC(=O)/C=C/c2ccc3c(C)n[nH]c3c2)cc1F [Example 42, (E)-N-(3-fluoro-4-methylphenyl)-3-(3-methyl-1H-indazol-6-yl)acrylamide] | 6.1 | -1.97
10 | CCc1n[nH]c2cc(/C=C/C(=O)NC3CCc4ccccc43)ccc12 (stereo not drawn) [Example 32, (E)-N-(2,3-dihydro-1H-inden-1-yl)-3-(3-ethyl-1H-indazol-6-yl)acrylamide] | 6.6 | 4.01
11 | Cc1n[nH]c2cc(/C=C/C(=O)NC3CCc4cc(F)ccc43)ccc12 (stereo not drawn) [Example 40, (E)-N-(5-fluoro-2,3-dihydro-1H-inden-1-yl)-3-(3-methyl-1H-indazol-6-yl)acrylamide] | 6.6 | 6.65
12 | CC1CCc2ccccc2C1NC(=O)/C=C/c1ccc2c(c1)NC(=O)C2 (stereo not drawn) [Example 58] | 5.5 | 
13 | Cc1n[nH]c2cc(/C=C/C(=O)N[C@@H]3CCCC[C@H]3C)ccc12 [Example 43, (E)-3-(3-methyl-1H-indazol-6-yl)-N-((1R,2R)-2-methylcyclohexyl)acrylamide] | 6.3 | 

Further lines, results first:

Row | mPTP Rat liver pIC50 (mPTP) | inhibition at 20 min, 1 µM (CYP2D6) [%] | Compound
14 | 4.9 |  | Cc1ccc(Cl)cc1NC(=O)/C=C/c1ccc2oc(=O)[nH]c2c1 [Example 63, (E)-N-(5-chloro-2-methylphenyl)-3-(2-oxo-2,3-dihydrobenzo[d]oxazol-5-yl)acrylamide]
15 | 5.8 | 4.52 | CC1CCCC1NC(=O)/C=C/c1ccc2oc(=O)[nH]c2c1 (stereo not drawn) [Example 49, (E)-N-(2-methylcyclopentyl)-3-(2-oxo-2,3-dihydrobenzo[d]oxazol-5-yl)acrylamide]
16 | 6.9 |  | Cc1n[nH]c2cc(/C=C/C(=O)NC3c4ccccc4OCC3C)ccc12 (stereo not drawn) [Example 52, (E)-3-(3-methyl-1H-indazol-6-yl)-N-(3-methylchroman-4-yl)acrylamide]
17 | 5.8 |  | O=C(/C=C/c1ccc2oc(=O)[nH]c2c1)NC1CCOc2ccccc21 (stereo not drawn) [Example 56, (E)-N-(chroman-4-yl)-3-(2-oxo-2,3-dihydrobenzo[d]oxazol-5-yl)acrylamide]
18 | 5.6 |  | O=C(/C=C/c1ccc2nn[nH]c2c1F)NC1CCc2ccccc21 (stereo not drawn) [Example 61, (E)-N-(2,3-dihydro-1H-inden-1-yl)-3-(7-fluoro-1H-benzo[d][1,2,3]triazol-6-yl)acrylamide]
19 | 6.3 |  | CC1Cc2ccccc2C1NC(=O)/C=C/c1ccc2oc(=O)[nH]c2c1 (stereo not drawn) [Example 46, (E)-N-(2-methyl-2,3-dihydro-1H-inden-1-yl)-3-(2-oxo-2,3-dihydrobenzo[d]oxazol-5-yl)acrylamide]
20 | 4.9 |  | CC1CCCCC1NC(=O)/C=C/c1ccc2c(c1)NC(=O)C2 (stereo not drawn) [Example 64, (E)-N-(2-methylcyclohexyl)-3-(2-oxoindolin-6-yl)acrylamide]
21 | 5.8 |  | O=C(/C=C/c1ccc2oc(=O)[nH]c2c1)NC1CCCc2ccccc21 (stereo not drawn) [Example 57, (E)-3-(2-oxo-2,3-dihydrobenzo[d]oxazol-5-yl)-N-(1,2,3,4-tetrahydronaphthalen-1-yl)acrylamide]
22 | 6.7 |  | Cc1n[nH]c2cc(/C=C/C(=O)NC3c4ccccc4CCC3C)ccc12 (stereo not drawn) [Example 53, (E)-N-(2-methyl-1,2,3,4-tetrahydronaphthalen-1-yl)-3-(3-methyl-1H-indazol-6-yl)acrylamide]
23 | 5.5 |  | O=C(/C=C/c1ccc2c(c1)NC(=O)C2)NC1CCc2ccccc21 (stereo not drawn) [Example 59, (E)-N-(2,3-dihydro-1H-inden-1-yl)-3-(2-oxoindolin-6-yl)acrylamide]
24 | 5.6 |  | O=C(/C=C/c1cc(F)c2nn[nH]c2c1)NC1CCc2ccccc21 (stereo not drawn) [Example 62, (E)-N-(2,3-dihydro-1H-inden-1-yl)-3-(4-fluoro-1H-benzo[d][1,2,3]triazol-6-yl)acrylamide]
25 | 7.1 |  | Cc1n[nH]c2cc(/C=C/C(=O)N[C@@H]3CCc4ccccc43)ccc12 [Example 55, (E)-N-(2,3-dihydro-1H-inden-1-yl)-3-(3-methyl-1H-indazol-6-yl)acrylamide]
26 | 5.7 |  | Cc1c(F)cc(F)cc1NC(=O)/C=C/c1ccc2c(c1)NC(=O)C2 [Example 60, (E)-N-(3,5-difluoro-2-methylphenyl)-3-(2-oxoindolin-6-yl)acrylamide]
